From patent US12264156B2, “Compounds and pharmaceutical compositions thereof for the treatment of diseases” (GALAPAGOS NV, priority 2018, dated 2025)

What was measured:
[1] = tested on: LPS-induced TNFα in monocyte-derived macrophages (MdM); assay: MdM assay: LPS-triggered TNFα (ELISA); assay type: cell-based, human; conditions: Homo sapiens, Macrophage, 20 h, monocyte-derived macrophages, LPS 200 ng/mL, supernatant after 20 h; read-out: TNFα EC50
How it was run: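 Human monocyte-derived macrophages from CD14+ bead-selected buffy-coat PBMCs, used on day 10, pre-treated with compound for 1 h at 37 °C (0.2% DMSO), then stimulated with 200 ng/mL LPS. Supernatant taken after 20 h for TNFα sandwich ELISA (IL-10 at 2 h).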

[2] = molecular target: T1, SIK2 (Homo sapiens, UniProt Q9H0K1); assay: ADP-Glo kinase assay, SIK2; assay type: biochemical; conditions: ADP-Glo SIK kinase assay
T1 construct: purchased ThermoFisher Scientific PV4792
How it was run: (§1)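 ADP-Glo, RT throughout. Enz/substrate + ATP, 120 min; ADP-Glo reagent 40 min (ATP depletion); detection reagent 30 min; luminescence read. Neg ctrl 1% DMSO, pos ctrl 10 μM staurosporine, final concs.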

[3] = tested on: TNFα; assay: Mouse LPS-induced endotoxic shock, plasma TNFα; assay type: in vivo; set-up: key: +: statistically significant inhibition of TNFα; −: no effect on the level of TNFα; conditions: 3 mg/kg, p.o.; plasma 90 min after LPS challenge
Description: (§2) Injection of lipopolysaccharide (LPS) induces a rapid release of soluble tumour necrosis factor (TNFα) into the periphery. This model was used to assess prospective blockers of TNFα release in vivo.
(§3) Lipopolysaccharide (LPS) from Escherichia Coli serotype O111:B4 was obtained from Sigma Aldrich (Cat #L2630).
(§4) BALB/cAnNCrl mice (female, 18-20 g body weight) were obtained from Charles River (Calco, Italy). Mice were kept on a 12 h light/dark cycle. Temperature was maintained at 22±2° C., food and water were provided ad libitum.
(§5) Mice were dosed once by oral (p.o.) or subcutaneous (sc) route with the tested compound in the appropriate vehicle.
(§6) At the Tmax of compound, 100 μg of LPS (in H2O) was injected intraperitoneally to mice. A control group was included which comprises administering the vehicle without an LPS challenge.
(§7) Mice were sacrificed 90 min after LPS challenge and blood was collected in heparinised tubes. Plasma was obtained by centrifugation for 15 min, 2000×g at +4° C. and frozen at −80° C. before cytokine analysis.
(§8) TNFα and IL-10 were quantified in plasma by AlphaLISA detection kits obtained from PerkinElmer (Massachusetts, USA), Cat4 AL505C and AL502C, respectively.
(§9) Statistics were performed with Prism 5.03 software (GraphPad) using an ANOVA analysis of variance with Dunnett's post-hoc test versus LPS group.
(§10) Active compounds were defined as showing a statistically significant decrease in TNFα with or without a statistically significant induction of IL-10

[4] = molecular target: T2, SIK3 (Homo sapiens, UniProt Q9Y2K2); assay: ADP-Glo kinase assay, SIK3; assay type: biochemical; conditions: ADP-Glo SIK kinase assay
T2 construct: purchased SignalChem S12-11G-100
How it was run: as §1

[5] = molecular target: T3, SIK1 (Homo sapiens, UniProt P57059); assay: ADP-Glo kinase assay, SIK1; assay type: biochemical; conditions: ADP-Glo SIK kinase assay
T3 construct: purchased Carna Biosciences 02-131
How it was run: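 Wells with 1% DMSO or 10 μM staurosporine (final) define the control window. The kinase reaction with substrate and ATP runs 120 min at RT, followed by ADP-Glo detection: ATP depletion (40 min) and ADP-derived luminescence (30 min).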

[6] = tested on: IL-10; assay: Mouse LPS-induced endotoxic shock, plasma IL-10; assay type: in vivo; set-up: key: +: statistically significant induction of IL-10; −: no effect on the level of IL-10; conditions: 3 mg/kg, p.o.; plasma 90 min after LPS challenge
Description: as §2, §3, §4, §5, §6, §7, §8, §9, §10

[7] = tested on: LPS triggered IL-10 secretion in monocytes; assay: Monocytes assay: LPS-triggered IL-10 (ELISA); assay type: cell-based, human; conditions: LPS 200 ng/mL, supernatant after 4 h, maximal fold change vs LPS only
How it was run: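 Human CD14+ monocytes, magnetically isolated from buffy-coat PBMCs, were seeded at 100 000 cells/well and preincubated with compound for 1 h at 37° C (0.2% DMSO). LPS was then added at a final 200 ng/mL for 4 h. Supernatant IL-10 was quantified by chemiluminescent sandwich ELISA against a standard curve.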

[8] = tested on: LPS-induced TNFα in monocytes; assay: Monocytes assay: LPS-triggered TNFα (ELISA); assay type: cell-based, human; conditions: Homo sapiens, Monocyte, 4 h, LPS 200 ng/mL, supernatant after 4 h
How it was run: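 Human CD14+ monocytes from buffy-coat PBMCs (magnetic bead selection) were seeded at 100 000 cells/well and pretreated with compound for 1 h at 37° C (0.2% DMSO). They were then stimulated with 200 ng/mL LPS for 4 h, and supernatant TNFα was measured by chemiluminescent sandwich ELISA as percent inhibition.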

T1 sequence (Q9H0K1 whole entry): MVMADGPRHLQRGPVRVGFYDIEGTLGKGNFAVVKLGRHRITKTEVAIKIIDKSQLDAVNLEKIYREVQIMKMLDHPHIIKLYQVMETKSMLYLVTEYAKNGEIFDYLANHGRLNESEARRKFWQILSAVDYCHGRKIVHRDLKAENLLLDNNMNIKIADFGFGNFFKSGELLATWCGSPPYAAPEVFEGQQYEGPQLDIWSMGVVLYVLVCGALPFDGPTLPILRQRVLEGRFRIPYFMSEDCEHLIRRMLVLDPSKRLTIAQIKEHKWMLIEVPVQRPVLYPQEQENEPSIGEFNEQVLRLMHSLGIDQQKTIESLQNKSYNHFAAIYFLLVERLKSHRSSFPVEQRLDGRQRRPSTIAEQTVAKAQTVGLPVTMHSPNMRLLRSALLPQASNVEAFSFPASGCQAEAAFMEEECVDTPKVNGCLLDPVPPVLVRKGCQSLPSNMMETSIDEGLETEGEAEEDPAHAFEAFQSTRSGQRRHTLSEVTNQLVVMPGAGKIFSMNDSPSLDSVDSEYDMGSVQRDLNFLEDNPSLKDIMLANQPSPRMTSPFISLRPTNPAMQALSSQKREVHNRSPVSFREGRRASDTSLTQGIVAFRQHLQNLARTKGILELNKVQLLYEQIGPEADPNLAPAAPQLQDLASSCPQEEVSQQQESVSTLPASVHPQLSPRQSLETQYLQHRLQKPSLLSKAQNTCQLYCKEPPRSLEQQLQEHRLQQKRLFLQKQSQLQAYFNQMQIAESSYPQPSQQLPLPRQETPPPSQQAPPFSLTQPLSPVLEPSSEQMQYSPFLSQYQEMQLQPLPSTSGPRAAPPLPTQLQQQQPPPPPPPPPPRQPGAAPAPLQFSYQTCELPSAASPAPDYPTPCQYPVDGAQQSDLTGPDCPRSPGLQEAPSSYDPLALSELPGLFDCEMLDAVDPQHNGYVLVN
T3 sequence (P57059 whole entry): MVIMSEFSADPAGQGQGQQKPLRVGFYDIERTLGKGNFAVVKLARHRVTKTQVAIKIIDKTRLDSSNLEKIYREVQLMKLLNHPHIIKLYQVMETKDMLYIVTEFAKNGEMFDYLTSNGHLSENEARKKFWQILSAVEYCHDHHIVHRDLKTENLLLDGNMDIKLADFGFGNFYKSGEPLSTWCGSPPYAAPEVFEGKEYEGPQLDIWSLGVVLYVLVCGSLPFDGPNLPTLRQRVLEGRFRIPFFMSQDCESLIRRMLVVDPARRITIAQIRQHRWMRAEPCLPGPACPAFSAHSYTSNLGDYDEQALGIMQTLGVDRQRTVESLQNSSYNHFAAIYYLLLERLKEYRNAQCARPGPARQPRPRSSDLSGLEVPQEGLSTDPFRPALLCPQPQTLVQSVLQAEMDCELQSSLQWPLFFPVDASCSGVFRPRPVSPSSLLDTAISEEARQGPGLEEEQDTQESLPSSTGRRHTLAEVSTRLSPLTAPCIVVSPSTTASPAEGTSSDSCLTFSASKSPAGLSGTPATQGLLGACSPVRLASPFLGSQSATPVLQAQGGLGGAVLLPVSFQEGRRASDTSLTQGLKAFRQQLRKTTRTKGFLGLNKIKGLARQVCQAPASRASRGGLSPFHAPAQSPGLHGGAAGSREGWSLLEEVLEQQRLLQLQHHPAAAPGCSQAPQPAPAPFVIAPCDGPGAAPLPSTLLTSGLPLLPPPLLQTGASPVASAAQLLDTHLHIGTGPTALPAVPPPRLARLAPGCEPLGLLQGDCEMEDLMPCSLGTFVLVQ
T2 sequence (Q9Y2K2 whole entry): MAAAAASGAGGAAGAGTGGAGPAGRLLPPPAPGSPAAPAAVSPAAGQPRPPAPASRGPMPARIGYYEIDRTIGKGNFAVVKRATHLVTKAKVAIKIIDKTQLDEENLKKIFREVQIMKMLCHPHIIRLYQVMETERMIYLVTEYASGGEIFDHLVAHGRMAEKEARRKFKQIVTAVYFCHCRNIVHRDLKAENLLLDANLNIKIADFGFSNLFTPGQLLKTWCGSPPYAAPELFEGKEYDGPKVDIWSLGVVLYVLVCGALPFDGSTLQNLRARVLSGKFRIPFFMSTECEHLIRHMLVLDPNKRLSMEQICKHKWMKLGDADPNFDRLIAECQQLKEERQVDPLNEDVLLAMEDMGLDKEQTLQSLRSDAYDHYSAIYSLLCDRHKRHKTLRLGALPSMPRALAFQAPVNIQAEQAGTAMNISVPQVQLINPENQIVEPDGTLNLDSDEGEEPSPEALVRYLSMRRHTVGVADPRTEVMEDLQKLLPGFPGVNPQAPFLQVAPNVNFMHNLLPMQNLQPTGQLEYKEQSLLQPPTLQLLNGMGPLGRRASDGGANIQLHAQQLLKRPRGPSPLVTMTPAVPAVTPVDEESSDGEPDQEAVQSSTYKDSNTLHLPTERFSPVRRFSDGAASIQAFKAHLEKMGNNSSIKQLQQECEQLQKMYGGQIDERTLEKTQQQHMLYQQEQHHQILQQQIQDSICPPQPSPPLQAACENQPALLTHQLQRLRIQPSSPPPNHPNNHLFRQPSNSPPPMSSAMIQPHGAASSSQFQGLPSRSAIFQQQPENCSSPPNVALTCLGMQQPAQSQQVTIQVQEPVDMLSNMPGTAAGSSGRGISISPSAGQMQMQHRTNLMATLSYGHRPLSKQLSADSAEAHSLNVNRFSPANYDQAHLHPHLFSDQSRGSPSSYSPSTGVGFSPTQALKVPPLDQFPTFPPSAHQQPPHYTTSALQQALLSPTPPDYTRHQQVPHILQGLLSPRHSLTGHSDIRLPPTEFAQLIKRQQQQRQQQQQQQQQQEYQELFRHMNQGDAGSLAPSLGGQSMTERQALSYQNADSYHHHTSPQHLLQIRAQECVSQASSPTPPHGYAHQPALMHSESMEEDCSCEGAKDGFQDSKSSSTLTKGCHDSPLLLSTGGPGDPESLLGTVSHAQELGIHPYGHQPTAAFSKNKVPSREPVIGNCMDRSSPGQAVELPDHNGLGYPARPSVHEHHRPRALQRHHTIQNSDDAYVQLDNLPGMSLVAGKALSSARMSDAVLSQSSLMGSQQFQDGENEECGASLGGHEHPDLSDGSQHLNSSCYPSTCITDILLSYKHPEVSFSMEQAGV

EC50 [1] [nM] | IC50 [2] [nM] | IC50 [4] [nM] | IC50 [5] [nM] | EC50 [8] [nM] | Structure (SMILES) | TNFα [3] | IL-10 [6] | IL-10 FCmax median [7]
0.1 to 100 | 0.01 to 10 | 0.01 to 10 | 10 to 100 |  | COc1cc(-c2cnc3cc(OCCCN4CCCCC4)ccn23)cc(OC(F)F)c1C(=O)NC1CC1 [compound 16, N-cyclopropyl-2-(difluoromethoxy)-6-methoxy-4-[7-[3-(1-piperidyl)propoxy]imidazo [1,2-a]pyridin-3-yl]benzamide] | − | − | 
 | 0.01 to 10 | 0.01 to 10 | 0.01 to 10 | 0.1 to 100 | COc1cc(-c2cnc3cc(OCCCN4CC5CC4CO5)ccn23)cc(OC(F)F)c1C(=O)NC1CC1 (stereo not shown) [compound 284, N-cyclopropyl-2-(difluoromethoxy)-6-methoxy-4-[7-[3-(2-oxa-5-azabicyclo[2.2.1]heptan-5-yl)propoxy]imidazo[1,2-a]pyridin-3-yl]benzamide] |  |  | ++ (>1.5-4.5)
 | 0.01 to 10 | 0.01 to 10 | 10 to 100 | 100 to 1000 | CCOC(=O)C1(O)CCN(CC(O)COc2ccn3c(-c4cc(OC)c(C(=O)NC5CC5)c(OC(F)F)c4)cnc3c2)CC1 (stereo not shown) [compound 383, ethyl 1-[3-[3-[4-(cyclopropylcarbamoyl)-3-(difluoromethoxy)-5-methoxy-phenyl]imidazo[1,2-a]pyridin-7-yl]oxy-2-hydroxy-propyl]-4-hydroxy-piperidine-4-carboxylate] |  |  | ++ (>1.5-4.5)
